The target in assay [1] is T1, EP3 receptor (Rattus norvegicus, UniProt P34980).
T1 construct: gene Ptger3; native receptor in locus coeruleus neurons, brain slices
T1 sequence (P34980 1-365): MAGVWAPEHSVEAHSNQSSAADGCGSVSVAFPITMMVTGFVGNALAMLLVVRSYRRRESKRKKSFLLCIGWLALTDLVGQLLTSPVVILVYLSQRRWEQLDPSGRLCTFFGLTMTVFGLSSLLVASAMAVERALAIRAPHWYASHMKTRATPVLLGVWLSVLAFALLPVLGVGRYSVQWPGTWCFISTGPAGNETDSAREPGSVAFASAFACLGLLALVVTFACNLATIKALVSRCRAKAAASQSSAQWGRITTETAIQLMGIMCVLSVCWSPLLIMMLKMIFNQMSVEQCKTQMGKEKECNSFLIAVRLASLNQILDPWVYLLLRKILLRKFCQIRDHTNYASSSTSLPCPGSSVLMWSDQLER
The experiment in a line: inhibition of LC neuron firing, single-unit extracellular recording; shifted by EP3 antagonist L-798, […].

Assay [2] addresses T1, EP3 receptor. Put plainly: antagonism of sulprostone concentration-effect curves, single-unit recording in rat LC slices (Schild-derived fit).

Like-named read-outs stand apart in the source and are kept apart here.

The term EC50 denotes the midpoint of the concentration-response curve.

`CCCCC[C@H](O)/C=C/[C@H]1[C@H](O)CC(=O)[C@@H]1C/C=C\CCCC(=O)O` [prostaglandin E2]: in assay [1], the EC50 was 0.11 µM.
Consider `CCCCC(C)(O)C/C=C/[C@H]1[C@H](O)CC(=O)[C@@H]1CCCCCCC(=O)O` (relative stereo) [misoprostol free acid], for which the EC50 in assay [1] (read-out: (EC50)) was 0.0507 µM.
As to `CS(=O)(=O)NC(=O)CCC/C=C\C[C@H]1C(=O)C[C@@H](O)[C@@H]1/C=C/[C@@H](O)COc1ccccc1` [sulprostone], the EC50 in assay [1] (read-out: (EC50)) was 0.0148 µM.
Regarding `COc1ccc(Br)cc1S(=O)(=O)NC(=O)/C=C/c1ccccc1Cc1ccc2ccccc2c1` [L-798,106], the Kb in assay [2] is 5.77 ± 0.10 pKB.

For the origin of these results see PMC10684765, “Inhibition of rat locus coeruleus neurons by prostaglandin E2 EP3 receptors: pharmacological characterization ex vivo” (Frontiers in Pharmacology, 2023).
